Results published in publication PMC4019984, “Kinase and channel activity of TRPM6 are co-ordinated by a dimerization motif and pocket interaction” (Biochemical Journal, 2014).

Tests used:
TRPM6-(1730–end) = biological target: T1, TRPM6-(1730–end) (Homo sapiens, UniProt Q9BX84); assay: Kinase activation assay (MBP substrate), TRPM6-(1730–end); assay type: biochemical; settings: FLAG-tagged TRPM6-(1730–end) immunoprecipitated from HEK-293; MBP 1 μg, 0.1 mM [γ-32P]ATP, 10 mM MgCl2, 30 min at 30°C; increasing peptide concentrations; read-out: half-maximal activation
T1 construct: expressed in transfected cells; host or cells: HEK-293
T1 sequence (Q9BX84 1730-2022 limits assumed): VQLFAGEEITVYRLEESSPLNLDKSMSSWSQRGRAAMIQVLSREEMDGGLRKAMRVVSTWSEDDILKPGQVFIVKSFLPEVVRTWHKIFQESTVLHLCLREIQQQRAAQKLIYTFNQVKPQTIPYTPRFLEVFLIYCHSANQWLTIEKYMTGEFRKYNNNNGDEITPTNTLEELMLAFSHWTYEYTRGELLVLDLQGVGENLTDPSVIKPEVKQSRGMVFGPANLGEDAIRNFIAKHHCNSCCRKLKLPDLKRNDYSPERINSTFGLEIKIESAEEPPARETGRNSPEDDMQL
Protocol: In assays using E. coli-expressed TRPM6, reactions were set up in a volume of 20 μl, with substrate MBP (myelin basic protein) at 1 μg and kinase at 0.1–10 μg in buffer A containing 0.1% 2-mercaptoethanol, 10 mM MgCl2 and 0.1 mM [γ-^32P]ATP (~1000 cpm·pmol^−1). Assays were carried out for 30 min at 30°C with shaking at 1000 rev./min and terminated by addition of SDS sample buffer. […] Proteins were detected by Coomassie Blue staining and gels were imaged using an Epson scanner and dried completely using a gel dryer (Bio-Rad Laboratories). Incorporation of [γ-^32P]ATP into substrates was analysed by autoradiography using Hyperfilm (GE Healthcare) or quantified by Cerenkov counting.
Figure 2 Identification of dimerization motif residues in TRPM6 (A) Structural model of TRPM7 α-kinase depicting the N-terminal non-catalytic α-helix of one monomer that interacts with the kinase segment of the other monomer. (B) Fluorescence polarization analysis of wild-type (WT) and mutant (Mut) dimerization motif peptides with E. coli-purified GST-tagged TRPM6-(1730–end). […] The samples were analysed by immunoblotting with anti-GST antibody (top panel). […] Proteins were separated by SDS/PAGE, stained with Coomassie Blue (top and middle gels) and MBP phosphorylation was detected by autoradiography (bottom gel). […] The pull-down samples were analysed by immunoblotting with anti-FLAG antibody (top panel). […]

[1] = biological target: T2, GST-tagged TRPM6-(1730–end) (Homo sapiens, UniProt Q9BX84); assay: Fluorescence polarization binding assay, TRPM6-(1730–end); settings: 100 nM labelled peptide, increasing concentrations of TRPM6-(1730–end), pH 7.5, room temperature
T2 construct: E. coli-purified GST-tagged TRPM6-(1730–end); made in house; host or cells: E. coli BL21
T2 sequence (Q9BX84 1730-2022 limits assumed): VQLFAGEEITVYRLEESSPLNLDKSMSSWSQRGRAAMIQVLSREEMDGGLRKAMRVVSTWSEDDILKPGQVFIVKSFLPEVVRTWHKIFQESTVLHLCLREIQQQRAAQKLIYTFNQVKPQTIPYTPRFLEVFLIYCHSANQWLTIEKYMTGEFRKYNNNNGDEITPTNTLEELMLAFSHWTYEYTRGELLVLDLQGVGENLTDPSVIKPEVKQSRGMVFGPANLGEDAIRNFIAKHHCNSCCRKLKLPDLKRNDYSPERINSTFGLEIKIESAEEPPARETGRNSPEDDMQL
Protocol: The peptides used for the assay contained a C-terminal linker leading to the peptides […] (wild-type) and […] (mutant). The peptides were labelled with Lumio Green (Invitrogen) following the manufacturer's protocol. Fluorescence polarization measurements were performed at room temperature in buffer containing 25 mM Tris/HCl (pH 7.5), 200 mM NaCl and 5 mM 2-mercaptoethanol. Binding assays were performed by combining 100 nM labelled peptide with increasing concentrations of TRPM6 kinase, in a total volume of 30 μl of buffer, and end-point polarization measurements were made using the BMG PheraStar plate reader. The polarization values were measured at an excitation wavelength of 485 nm and an emission wavelength of 538 nm, and were corrected for fluorescent probe alone. At least ten data points were measured for each curve, and each data point was measured in duplicate. Data were analysed using GraphPad Prism 5 and curve-fitting of the data from two independent experiments was performed with one-site specific binding with Hill slope [model Y=BmaxX^h/(Kd^h+X^h)] to determine Kd values.
(Figure 2A). We next utilized fluorescence polarization technology, a sensitive method to evaluate interactions between proteins and peptides. […]

[2] = biological target: T3, GST-tagged TRPM6-(1730–end), E. coli-purified, Q9BX84; assay: fluorescence polarisation; settings: chain shown with the change; read at the highest titration point, 2.5 µM TRPM6-(1730-end); parent: est. 94; read off a plot
T3 chain: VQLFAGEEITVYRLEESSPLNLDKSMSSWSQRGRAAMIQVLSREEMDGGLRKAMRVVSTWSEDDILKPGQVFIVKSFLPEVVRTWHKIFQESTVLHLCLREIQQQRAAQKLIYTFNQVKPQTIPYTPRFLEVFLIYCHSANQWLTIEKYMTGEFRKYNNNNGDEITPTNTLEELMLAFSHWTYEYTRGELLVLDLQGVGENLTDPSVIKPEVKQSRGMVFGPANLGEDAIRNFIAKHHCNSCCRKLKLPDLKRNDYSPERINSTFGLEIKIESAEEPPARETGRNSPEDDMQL

CC[C@H](C)[C@H](NC(=O)[C@H](C)NC(=O)[C@H](CO)NC(=O)[C@H](Cc1ccc(O)cc1)NC(=O)[C@H](Cc1c[nH]cn1)NC(=O)[C@H](Cc1c[nH]cn1)NC(=O)[C@H](Cc1c[nH]cn1)NC(=O)[C@@H]1CCCN1C(=O)[C@H](CCC(=O)O)NC(=O)[C@H](CCC(N)=O)NC(=O)[C@@H]1CCCN1C(=O)[C@H](CO)NC(=O)[C@H](CCCCN)NC(=O)[C@@H](N)CC(C)C)C(=O)N[C@@H](CCC(=O)O)C(=O)N[C@@H](CCCNC(=N)N)C(=O)N[C@@H](CC(N)=O)C(=O)N[C@@H](CC(N)=O)C(=O)N[C@@H](CC(C)C)C(=O)N[C@@H](CCSC)C(=O)N[C@@H](CCCNC(=N)N)C(=O)N[C@@H](CC(C)C)C(=O)N[C@@H](CO)C(=O)N[C@@H](CCC(N)=O)C(=O)N[C@H](C(=O)N[C@H](C(=O)N1CCC[C@H]1C(=O)N[C@@H](Cc1ccccc1)C(=O)N[C@H](C(=O)N1CCC[C@H]1C(=O)N[C@H](C(=O)N[C@@H](CCC(N)=O)C(=O)N[C@@H](CC(C)C)C(=O)N[C@@H](Cc1ccccc1)C(=O)N[C@@H](C)C(=O)NCC(=O)N[C@@H](CCC(=O)O)C(=O)N[C@@H](CCC(=O)O)C(=O)N[C@H](C(=O)N[C@H](C(=O)N[C@H](C(=O)O)C(C)C)[C@@H](C)O)[C@@H](C)CC)C(C)C)[C@@H](C)O)[C@@H](C)CC)[C@@H](C)O [dimerization motif peptide]
EC50 (TRPM6-(1730–end)): ~15 µM

LKSPQEPHHHYSAIERNNAMRASQTIPFTPVQLFAGEEITVGGCCPGCC [mutant dimerization motif peptide, mutant (L1718A+L1721A) dimerization motif peptide with C-terminal linker, labelled with Lumio Green]
fluorescence polarization increase (binding) [1]: only background increases in fluorescence polarization were observed

LKSPQEPHHHYSAIERNNAMRASQTIPFTPVQLFAGEEITVGGCCPGCC
response [2]: 24 mP
